What was measured:
[1] = tested on: Puccinia recondita f. Sp. Tritici; assay: Puccinia recondita f. sp. tritici / wheat / leaf disc preventative (brown rust); type: in vivo; conditions: foliar, 168 h, 200 ppm in the applied formulation, wheat leaf segments cv. Kanzler, preventative, inoculated 1 day after application, assessed 7 to 9 days after application, vs untreated, read-out: disease control
Outline: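 Preventative leaf-segment test: spray application of diluted formulated compound on wheat cv. Kanzler, spore inoculation after 1 day. Percent control relative to untreated segments rated 7 to 9 days post-application, with incubation at 19° C, 75% relative humidity, 12 h photoperiod.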

Phakopsora pachyrhizi = Phakopsora pachyrhizi / soybean / leaf disc preventative (Asian soybean rust); type: in vivo; conditions: foliar, 288 h, 200 ppm in the applied formulation, soybean leaf disks, inoculated one day after application, assessed 12 to 14 days after application, vs untreated, read-out: disease control
Experimental: Leaf disks or leaf segments of various plant species are cut from plants grown in a greenhouse. The cut leaf disks or segments are placed in multiwell plates (24-well format) onto water agar. The leaf disks are sprayed with a test solution before (preventative) or after (curative) inoculation. Compounds to be tested are prepared as DMSO solutions (max. 10 mg/ml) which are diluted to the appropriate concentration with 0.025% Tween20 just before spraying. The inoculated leaf disks or segments are incubated under defined conditions (temperature, relative humidity, light, etc.) according to the respective test system. A single evaluation of disease level is carried out 3 to 14 days after inoculation, depending on the pathosystem. Percent disease control relative to the untreated check leaf disks or segments is then calculated.
Soybean leaf disks are placed on water agar in multiwell plates (24-well format) and sprayed with the formulated test compound diluted in water. One day after application leaf discs are inoculated by spraying a spore suspension on the lower leaf surface. After an incubation period in a climate cabinet of 24-36 hours in darkness at 20° C. and 75% rh leaf disc are kept at 20° C. with 12 h light/day and 75% rh. The activity of a compound is assessed as percent disease control compared to untreated when an appropriate level of disease damage appears in untreated check leaf disks (12 to 14 days after application).
The following compounds at 200 ppm in the applied formulation give at least 80% disease control in this test when compared to untreated control leaf disks under the same conditions, which show extensive disease development.

[2] = tested on: Glomerella Lagenarium (Colletotrichum Lagenarium); assay: Glomerella lagenarium (Colletotrichum lagenarium) liquid culture / cucumber / preventative (anthracnose); type: cell-based; conditions: Colletotrichum orbiculare; 20 ppm in the applied formulation; liquid culture in PDB, 24° C., inhibition of growth measured photometrically 3 to 4 days after application, vs untreated; read-out: disease control
Outline: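 Conidia from cryogenic storage were mixed into potato dextrose broth. This was added to compound diluted from DMSO into 0.025% Tween20, tested at 20 ppm. Plates were incubated in the dark at 24 °C and 96% relative humidity, and growth was read photometrically after 2–7 days as % activity versus untreated check.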

CCOC(=O)c1cn(Cc2ccc(-c3noc(C(F)(F)F)n3)cc2)nc1C(F)F [Compound 1.204, ethyl 3-(difluoromethyl)-1-[[4-[5-(trifluoromethyl)-1,2,4-oxadiazol-3-yl]phenyl]methyl]pyrazole-4-carboxylate]
≥ 80%: pest or weed control at 200 ppm [1] | pest or weed control at 200 ppm (Phakopsora pachyrhizi) | inhibition of growth at 20 ppm [2]

FC(F)(F)c1nc(-c2ccc(Cn3cnc(SCc4ccccc4)n3)cc2)no1 [Compound 1.212, 3-[4-[(3-benzylsulfanyl-1,2,4-triazol-1-yl)methyl]phenyl]-5-(trifluoromethyl)-1,2,4-oxadiazole]
≥ 80%: pest or weed control at 200 ppm [1] | pest or weed control at 200 ppm (Phakopsora pachyrhizi) | inhibition of growth at 20 ppm [2]

Cc1cc(O)nn1Cc1ccc(-c2noc(C(F)(F)F)n2)cc1 [Compound 1.171, 5-methyl-1-[[4-[5-(trifluoromethyl)-1,2,4-oxadiazol-3-yl]phenyl]methyl]pyrazol-3-ol]
≥ 80%: pest or weed control at 200 ppm [1] | pest or weed control at 200 ppm (Phakopsora pachyrhizi) | inhibition of growth at 20 ppm [2]

COC(=O)c1cccc2c1cnn2Cc1ccc(-c2noc(C(F)(F)F)n2)cc1 [Compound 1.193, methyl 1-[[4-[5-(trifluoromethyl)-1,2,4-oxadiazol-3-yl]phenyl]methyl]indazole-4-carboxylate]
≥ 80%: pest or weed control at 200 ppm [1] | pest or weed control at 200 ppm (Phakopsora pachyrhizi) | inhibition of growth at 20 ppm [2]

N#Cc1nnn(Cc2ccc(-c3noc(C(F)(F)F)n3)cc2)c1-c1c(F)cccc1F [Compound 1.240, 5-(2,6-difluorophenyl)-1-[[4-[5-(trifluoromethyl)-1,2,4-oxadiazol-3-yl]phenyl]methyl]triazole-4-carbonitrile]
≥ 80%: pest or weed control at 200 ppm [1] | pest or weed control at 200 ppm (Phakopsora pachyrhizi) | inhibition of growth at 20 ppm [2]

CCCc1c(C(=O)OCC)ncn1Cc1ccc(-c2noc(C(F)(F)F)n2)cc1 [Compound 1.224, ethyl 5-propyl-1-[[4-[5-(trifluoromethyl)-1,2,4-oxadiazol-3-yl]phenyl]methyl]imidazole-4-carboxylate]
≥ 80%: pest or weed control at 200 ppm [1] | pest or weed control at 200 ppm (Phakopsora pachyrhizi) | inhibition of growth at 20 ppm [2]

N#Cc1cc2n(Cc3ccc(-c4noc(C(F)(F)F)n4)cc3)cccc-2n1 [Compound 1.157, 4-[[4-[5-(trifluoromethyl)-1,2,4-oxadiazol-3-yl]phenyl]methyl]pyrrolo[3,2-b]pyridine-2-carbonitrile]
≥ 80%: pest or weed control at 200 ppm [1] | pest or weed control at 200 ppm (Phakopsora pachyrhizi) | inhibition of growth at 20 ppm [2]

N#Cc1cc2ncccc2n1Cc1ccc(-c2noc(C(F)(F)F)n2)cc1 [Compound 1.158, 1-[[4-[5-(trifluoromethyl)-1,2,4-oxadiazol-3-yl]phenyl]methyl]pyrrolo[3,2-b]pyridine-2-carbonitrile]
≥ 80%: pest or weed control at 200 ppm [1] | pest or weed control at 200 ppm (Phakopsora pachyrhizi) | inhibition of growth at 20 ppm [2]

CCOC(=O)c1cc(C2CC2)n(Cc2ccc(-c3noc(C(F)(F)F)n3)cc2)n1 [Compound 1.186, ethyl 5-cyclopropyl-1-[[4-[5-(trifluoromethyl)-1,2,4-oxadiazol-3-yl]phenyl]methyl]pyrazole-3-carboxylate]
≥ 80%: pest or weed control at 200 ppm [1] | pest or weed control at 200 ppm (Phakopsora pachyrhizi) | inhibition of growth at 20 ppm [2]

FC(F)(F)c1ccn(Cc2ccc(-c3noc(C(F)(F)F)n3)cc2)n1 [Compound 1.21, 5-(trifluoromethyl)-3-[4-[[3-(trifluoromethyl)pyrazol-1-yl]methyl]phenyl]-1,2,4-oxadiazole]
≥ 80%: pest or weed control at 200 ppm [1] | pest or weed control at 200 ppm (Phakopsora pachyrhizi) | inhibition of growth at 20 ppm [2]

Source: patent publication US10798941B2, “Microbiocidal oxadiazole derivatives” (SYNGENTA PARTICIPATIONS AG, priority 2016, dated 2020)
